Measured values from PubChem BioAssay AID1745844 (Carcinogenic Potency Database (CPDB), 2022).
The source made the active and inactive calls. The rule behind the calls is not given here.

System: rodent lifetime carcinogenesis bioassay, tumor incidence TD50
Assay: chronic cancer bioassays in animals – CPDB, compiled studies (AID 1745844)

With `O` the TD50 (mouse, strain B6C3F1, females, in drinking water, site: any site (literature study), lesion: several types, types named in the paper, dosed 104 weeks, study length 105 weeks) was 806 mg/kg/day (inactive), the TD50 (mouse, strain B6C3F1, females, in drinking water, site: liver, lesion: hepatocellular adenoma + hepatoblastoma + hepatocellular carcinoma, dosed 104 weeks, study length 105 weeks) was 4410 mg/kg/day and the TD50 (mouse, strain B6C3F1, females, in drinking water, site: lung, lesion: alveolar/bronchiolar adenoma + alveolar/bronchiolar carcinoma, dosed 104 weeks, study length 105 weeks) was 13400 mg/kg/day. For the same compound, the carcinogen call (mouse, strain B6C3F1, females, in feed, site: all sites, lesion: lymphoma and leukemia, combined, dosed 96 weeks, study length 104 weeks) was “negative (inactive)”, the carcinogen call (mouse, strain B6C3F1, females, in feed, site: liver, lesion: hemangioma, dosed 96 weeks, study length 104 weeks) was “negative (inactive)” and the TD50 (mouse, strain B6C3F1, females, in feed, site: liver, lesion: hemangiosarcoma, dosed 96 weeks, study length 104 weeks) was 57500 mg/kg/day (inactive). The carcinogen call (mouse, strain B6C3F1, females, in feed, site: liver, lesion: hepatocellular carcinoma, dosed 96 weeks, study length 104 weeks) was “negative (inactive)”, the TD50 (mouse, strain B6C3F1, females, in feed, site: liver, lesion: hyperplastic nodule, dosed 96 weeks, study length 104 weeks) was 60500 mg/kg/day (inactive) and the TD50 (mouse, strain B6C3F1, females, in feed, site: lung, lesion: adenocarcinoma, dosed 96 weeks, study length 104 weeks) was 260000 mg/kg/day (inactive). The TD50 (mouse, strain B6C3F1, females, in feed, site: lung, lesion: adenoma, dosed 96 weeks, study length 104 weeks) was 100000 mg/kg/day (inactive), the TD50 (mouse, strain B6C3F1, males, in drinking water, site: all sites, lesion: hemangioma, dosed 103 weeks, study length 103 weeks) was 3470 mg/kg/day (inactive) and the TD50 (mouse, strain B6C3F1, males, in feed, site: all sites, lesion: lymphoma and leukemia, combined, dosed 96 weeks, study length 104 weeks) was 10700 mg/kg/day (inactive). The TD50 (mouse, strain B6C3F1, males, in feed, site: liver, lesion: hemangioma, dosed 96 weeks, study length 104 weeks) was 24400 mg/kg/day (inactive), the TD50 (mouse, strain B6C3F1, males, in feed, site: liver, lesion: hemangiosarcoma, dosed 96 weeks, study length 104 weeks) was 46700 mg/kg/day (inactive) and the carcinogen call (mouse, strain B6C3F1, males, in feed, site: liver, lesion: hepatocellular carcinoma, dosed 96 weeks, study length 104 weeks) was “negative (inactive)”. The carcinogen call (mouse, strain B6C3F1, males, in feed, site: liver, lesion: hyperplastic nodule, dosed 96 weeks, study length 104 weeks) was “negative (inactive)”, the carcinogen call (mouse, strain B6C3F1, males, in feed, site: lung, lesion: adenocarcinoma, dosed 96 weeks, study length 104 weeks) was “negative (inactive)” and the TD50 (mouse, strain B6C3F1, males, in feed, site: lung, lesion: adenoma, dosed 96 weeks, study length 104 weeks) was 87600 mg/kg/day (inactive). The carcinogen call (rat, strain Fischer 344, females, in drinking water, site: any site (literature study), lesion: several types, types named in the paper, dosed 105 weeks, study length 105 weeks) was “negative (inactive)” and the carcinogen call (rat, strain Fischer 344, males, in drinking water, site: any site (literature study), lesion: several types, types named in the paper, dosed 104 weeks, study length 104 weeks) was “negative (inactive)”.
Work on `O=NN(CCO)CC(O)CO` (stereo unspecified) yielded a TD50 (hamster, strain Syrian Golden, females, by gavage, site: trachea, lesion: adenoma, dosed 50 weeks, study length 104 weeks) of 52.7 mg/kg/day, a TD50 (rat, strain Fischer 344, females, in drinking water, site: liver, lesion: hepatocellular carcinoma, dosed 75 weeks, study length 120 weeks) of 11.5 mg/kg/day and a TD50 (rat, strain Fischer 344, females, in drinking water, site: liver, lesion: neoplastic nodule, dosed 75 weeks, study length 120 weeks) of 8.69 mg/kg/day. The TD50 (rat, strain Fischer 344, females, in drinking water, site: liver, lesion: several types, types named in the paper, dosed 75 weeks, study length 120 weeks) was 5.98 mg/kg/day.
In the case of `CN(CCCO)N=O`, the TD50 (rat, strain Fischer 344, females, by gavage, site: liver, lesion: neoplastic nodule, dosed 130 weeks, study length 130 weeks) is reported as 3.48 mg/kg/day, the TD50 (rat, strain Fischer 344, females, by gavage, site: lung, lesion: alveolar/bronchiolar adenoma, dosed 130 weeks, study length 130 weeks) is reported as 14.4 mg/kg/day and the TD50 (rat, strain Fischer 344, females, by gavage, site: lung, lesion: alveolar/bronchiolar carcinoma, dosed 130 weeks, study length 130 weeks) is reported as 24.9 mg/kg/day. For the same compound, the TD50 (rat, strain Fischer 344, females, by gavage, site: lung, lesion: several types, types named in the paper, dosed 130 weeks, study length 130 weeks) was 8.06 mg/kg/day, the TD50 (rat, strain Fischer 344, males, by gavage, site: liver, lesion: neoplastic nodule, dosed 130 weeks, study length 130 weeks) was 4.78 mg/kg/day and the TD50 (rat, strain Fischer 344, males, by gavage, site: lung, lesion: alveolar/bronchiolar adenoma, dosed 130 weeks, study length 130 weeks) was 8.46 mg/kg/day. It also gave a TD50 (rat, strain Fischer 344, males, by gavage, site: lung, lesion: alveolar/bronchiolar carcinoma, dosed 130 weeks, study length 130 weeks) of 2.46 mg/kg/day, a TD50 (rat, strain Fischer 344, males, by gavage, site: lung, lesion: several types, types named in the paper, dosed 130 weeks, study length 130 weeks) of 1.09 mg/kg/day and a TD50 (rat, strain Fischer 344, males, by gavage, site: testis, lesion: interstitial-cell tumor, dosed 130 weeks, study length 130 weeks) of 2.26 mg/kg/day.
`ClC1=C(Cl)[C@]2(Cl)[C@@H]3[C@H]4C[C@H]([C@@H]5O[C@H]45)[C@@H]3[C@@]1(Cl)C2(Cl)Cl` was tested, and the TD50 (mouse, strain B6C3F1, females, in feed, site: any site (literature study), lesion: several types, types named in the paper, dosed 80 weeks, study length 90 weeks) was 6.88 mg/kg/day (inactive), the TD50 (mouse, strain B6C3F1, females, in feed, site: lung, lesion: alveolar/bronchiolar adenoma + alveolar/bronchiolar carcinoma, dosed 80 weeks, study length 90 weeks) was 67 mg/kg/day and the TD50 (mouse, strain B6C3F1, males, in feed, site: any site (literature study), lesion: several types, types named in the paper, dosed 80 weeks, study length 90 weeks) was 0.546 mg/kg/day (inactive). The TD50 (mouse, strain B6C3F1, males, in feed, site: liver, lesion: hepatocellular adenoma + hepatocellular carcinoma + neoplastic nodule, dosed 80 weeks, study length 90 weeks) was 0.854 mg/kg/day, the TD50 (mouse, strain B6C3F1, males, in feed, site: lung, lesion: alveolar/bronchiolar adenoma + alveolar/bronchiolar carcinoma, dosed 80 weeks, study length 90 weeks) was 1.27 mg/kg/day and the TD50 (rat, strain Osborne-Mendel, females, in feed, site: adrenal gland, lesion: adenoma, NOS + carcinoma, NOS, dosed 80 weeks, study length 109 weeks) was 0.227 mg/kg/day (inactive). The carcinogen call (rat, strain Osborne-Mendel, females, in feed, site: any site (literature study), lesion: several types, types named in the paper, dosed 80 weeks, study length 110 weeks) was “negative (inactive)”, the carcinogen call (rat, strain Osborne-Mendel, females, in feed, site: any site (literature study), lesion: several types, types named in the paper, dosed 117 weeks, study length 121 weeks) was “negative (inactive)” and the TD50 (rat, strain Osborne-Mendel, females, in feed, site: liver, lesion: hemangioma, dosed 117 weeks, study length 121 weeks) was 42.3 mg/kg/day (inactive). The TD50 (rat, strain Osborne-Mendel, females, in feed, site: liver, lesion: hepatocellular adenoma + hepatocellular carcinoma + neoplastic nodule, dosed 80 weeks, study length 110 weeks) was 7.44 mg/kg/day, the TD50 (rat, strain Osborne-Mendel, females, in feed, site: pituitary gland, lesion: adenoma, NOS, dosed 80 weeks, study length 109 weeks) was 0.579 mg/kg/day and the TD50 (rat, strain Osborne-Mendel, males, in feed, site: adrenal gland, lesion: adenoma, NOS + carcinoma, NOS, dosed 80 weeks, study length 110 weeks) was 0.553 mg/kg/day (inactive). The TD50 (rat, strain Osborne-Mendel, males, in feed, site: adrenal gland, lesion: adenoma, NOS, dosed 80 weeks, study length 110 weeks) was 0.66 mg/kg/day, the TD50 (rat, strain Osborne-Mendel, males, in feed, site: all sites, lesion: hemangioma, dosed 80 weeks, study length 110 weeks) was 0.661 mg/kg/day and the TD50 (rat, strain Osborne-Mendel, males, in feed, site: any site (literature study), lesion: several types, types named in the paper, dosed 80 weeks, study length 110 weeks) was 0.776 mg/kg/day (inactive). For the same compound, the carcinogen call (rat, strain Osborne-Mendel, males, in feed, site: any site (literature study), lesion: several types, types named in the paper, dosed 121 weeks, study length 126 weeks) was “negative (inactive)”, the carcinogen call (rat, strain Osborne-Mendel, males, in feed, site: liver, lesion: hemangioma, dosed 121 weeks, study length 126 weeks) was “negative (inactive)” and the TD50 (rat, strain Osborne-Mendel, males, in feed, site: pancreatic islets, lesion: islet-cell carcinoma, dosed 80 weeks, study length 110 weeks) was 1.75 mg/kg/day.
`NCCCCCCCCCCC(=O)O` was tested, and the TD50 (mouse, strain B6C3F1, females, in feed, site: any site (literature study), lesion: several types, types named in the paper, dosed 103 weeks, study length 109 weeks) was 15600 mg/kg/day (inactive), the TD50 (mouse, strain B6C3F1, females, in feed, site: liver, lesion: hepatocellular adenoma + hepatocellular carcinoma + neoplastic nodule, dosed 103 weeks, study length 109 weeks) was 37900 mg/kg/day and the TD50 (mouse, strain B6C3F1, females, in feed, site: lung, lesion: alveolar/bronchiolar adenoma + alveolar/bronchiolar carcinoma, dosed 103 weeks, study length 109 weeks) was 18800 mg/kg/day. The TD50 (mouse, strain B6C3F1, males, in feed, site: all sites, lesion: malignant lymphoma, dosed 103 weeks, study length 109 weeks) was 4970 mg/kg/day (inactive), the TD50 (mouse, strain B6C3F1, males, in feed, site: any site (literature study), lesion: several types, types named in the paper, dosed 103 weeks, study length 109 weeks) was 6500 mg/kg/day and the TD50 (mouse, strain B6C3F1, males, in feed, site: liver, lesion: hepatocellular adenoma + hepatocellular carcinoma + neoplastic nodule, dosed 103 weeks, study length 109 weeks) was 6250 mg/kg/day. For the same compound, the TD50 (rat, strain Fischer 344, females, in feed, site: any site (literature study), lesion: several types, types named in the paper, dosed 104 weeks, study length 109 weeks) was 1250 mg/kg/day (inactive), the TD50 (rat, strain Fischer 344, females, in feed, site: liver, lesion: hepatocellular adenoma + hepatocellular carcinoma + neoplastic nodule, dosed 104 weeks, study length 109 weeks) was 44600 mg/kg/day and the TD50 (rat, strain Fischer 344, males, in feed, site: any site (literature study), lesion: several types, types named in the paper, dosed 104 weeks, study length 109 weeks) was 802 mg/kg/day. For the same compound, the TD50 (rat, strain Fischer 344, males, in feed, site: liver + urinary bladder, lesion: hepatocellular carcinoma + neoplastic nodule + transitional-cell carcinoma, dosed 104 weeks, study length 109 weeks) was 833 mg/kg/day, the TD50 (rat, strain Fischer 344, males, in feed, site: liver, lesion: hepatocellular adenoma + hepatocellular carcinoma + neoplastic nodule, dosed 104 weeks, study length 109 weeks) was 1100 mg/kg/day and the TD50 (rat, strain Fischer 344, males, in feed, site: liver, lesion: hepatocellular carcinoma + neoplastic nodule, dosed 104 weeks, study length 109 weeks) was 1100 mg/kg/day. For the same compound, the TD50 (rat, strain Fischer 344, males, in feed, site: liver, lesion: neoplastic nodule, dosed 104 weeks, study length 109 weeks) was 1290 mg/kg/day, the TD50 (rat, strain Fischer 344, males, in feed, site: mammary gland, lesion: fibroadenoma, dosed 104 weeks, study length 109 weeks) was 2910 mg/kg/day and the TD50 (rat, strain Fischer 344, males, in feed, site: urinary bladder, lesion: transitional-cell carcinoma, dosed 104 weeks, study length 109 weeks) was 3170 mg/kg/day.
